Consider one compound from patent US20190040101A1, “COMPOUND FOR TREATING SEQUELAE OF ISCHEMIC CEREBRAL STROKE” (priority 2015, published 2019).

Structures are written as SMILES. Residues, ends and D or L forms follow the SMILES beside them.

Test [1] deals with right cerebral artery ischemia/reperfusion model in rats. Nature of the test: Neurologic deficit score in the rat 1.5-hour ischemia/reperfusion model. Type of test: in vivo, Sprague-Dawley (SD) rats. The settings on record: 3.6 mg/kg intraperitoneal once a day. The procedure:
(§1) Sprague-Dawley (SD) rats, male, weighing 280-320 g, clean, feeding, conditions: room temperature of 20-25° C., humidity of 30-60%, well ventilated, ad libitum diet; the animals were acclimatized in the feeding environment for three days prior to the experiment.
(§2) The rats were anesthetized with 4% chloral hydrate (350 mg/kg, ip.) and then were fixed in a supine position. A midline ventral neck incision was made, the right common carotid artery was separated and snared with two sutures for further use. Then, the internal carotid artery and external carotid artery were separated, and the external carotid artery was ligatured. The separated common carotid artery was ligatured at its proximal end with a thread, and the blood flow of the same was blocked at its distal end with a bulldog clamp. A small opening was cut therebetween and a nylon suture (4-0) which is heated at one end into a bead-like shape (having a diameter of <0.3 mm) was inserted into the small opening. […]
Neurologic deficit scores were assessed for the above experimental animals according to the following procedure before the beginning of experiment and 24 hours, 1 day, 3 days, 7 days, 14 days, 28 days, 56 days, and 112 days after the beginning of experiment; Score rules: see Zea Longer score and NSS score, full score of 10; • (i) Lifting an animal by tail: (full score of 1) […]

The nature of test [2]: Body weight of rats in the 1.5-hour ischemia/reperfusion model. Type of test: in vivo, Sprague-Dawley (SD) rats. The following applies: 3.6 mg/kg intraperitoneal once a day. How it is done: as §1
as §2, with “opening. The bulldog clamp was removed, and the nylon suture was gently advanced to the origin of the anterior cerebral artery (18-20 mm), thereby causing arterial ischemia in brain by blocking the blood supply of the cerebral artery. The skin was sutured and was sterilized with tincture of iodine.” for “opening.”

Turning to `CC(C)CC(NC(=O)C(CCC(N)=O)NC(=O)C(NC(=O)C(CO)NC(=O)C(Cc1c[nH]cn1)NC(=O)C(N)C(C)C)C(C)C)C(=O)NC(Cc1ccc(O)cc1)C(=O)O` (stereo not shown) [compound of formula (III)] (H-VHSVQLY-OH; configuration not given here), the “neuroethology (neurologic deficit) score compared to the model group” value in test [1] (I1.5R+1 week+dosing for 4 weeks, statistically significant in weeks 2, 3, 4, 5 and 7 after the operation, FIG. 4) is “gradually declined neuroethology score”. Besides, the “neurological score compared to the model group” value in test [1] (I1.5R+2 weeks+dosing for 4 weeks, statistically significant at the fifth week after the operation, FIG. 6) is “declined from the beginning of the administration”. The “weight change compared to the model group” value is listed as “gradually increased weight” in test [2] (I1.5R+1 week+dosing for 4 weeks, FIG. 3) and “gradually increased weight” in test [2] (I1.5R+2 weeks+dosing for 4 weeks, weight data not demonstrative (groups already differed before dosing), FIG. 5).
